Test results: patent US6329395A, “Neuropeptide Y5 receptor antagonists” (Schering Corporation, priority 1999, dated 2001)

molecular target: T1, neuropeptide Y5 receptor (Homo sapiens, UniProt Q15761); assay: NPY Receptor Binding Assay (125I-peptide YY, CHO cell membranes, neuropeptide Y5 receptor); conditions: not given
T1 construct: expressed in transfected cells; host or cells: CHO cells (membranes)
T1 sequence (Q15761 1-445): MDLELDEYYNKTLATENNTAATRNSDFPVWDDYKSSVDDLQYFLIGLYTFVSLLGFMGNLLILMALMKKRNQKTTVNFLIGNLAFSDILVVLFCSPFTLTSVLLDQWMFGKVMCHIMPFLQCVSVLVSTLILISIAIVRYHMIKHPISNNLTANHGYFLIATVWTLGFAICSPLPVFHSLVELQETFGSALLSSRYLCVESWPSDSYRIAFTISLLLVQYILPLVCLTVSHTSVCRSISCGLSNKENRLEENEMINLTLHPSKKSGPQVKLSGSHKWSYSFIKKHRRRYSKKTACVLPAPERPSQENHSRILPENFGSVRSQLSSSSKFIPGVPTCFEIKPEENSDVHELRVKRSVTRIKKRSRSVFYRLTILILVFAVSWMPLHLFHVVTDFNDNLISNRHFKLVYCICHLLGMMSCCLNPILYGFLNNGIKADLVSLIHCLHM
Description: Human NPY receptors were expressed in CHO cells. Binding assays were performed in 50 mM HEPES, pH. […] Non-specific binding was determined in the presence of 1 uM NPY. The reaction mixtures were incubated for 90 minutes at 30° C. (NPY1 receptor) or at room temperature (NPY2, NPY4 and NPY5 receptors), then filtered through Millipore MAFC glass fiber filter plates which had been pre-soaked in 0.5% polyethyleneimine. The filters were washed with phosphate-buffered saline, and radioactivity was measured in a Packard TopCount scintillation counter.

Structure (SMILES) | Ki [nM]
CN(C)C(=O)Nc1ccc(SC(C)(C)C)cc1 [Example 1M] | 152

same assay, conditions: neuropeptide Y5 receptor binding; 0.1 nM 125I-peptide YY; room temperature, 90 minutes; pH 7.2; r/h Y5; read-out: r/h Y5 Ki

Structure (SMILES) | Ki [nM]
CCCC(C)(C)Sc1ccc(NC(=O)C(C)(C)C)cc1 [Example 1] | 3
CCCC(C)(C)Sc1ccc(NC(=O)NC2CCN(C)CC2)cc1 [Example 2Al] | 697
CCCC(C)(C)Sc1ccc(NC(=O)N(C)CCCN(C)C)cc1 [Example 2X] | 50
CCCC(C)(C)Sc1ccc(NC(=O)C(C)(C)C)cc1F [Example 3] | 9

Next, values leading:

Ki [nM] | Structure (SMILES)
668 | CCCC(C)(C)Oc1ccc(NC(=O)CC(C)(C)C)cc1 [Example 6C]
66 | CCCCC1(Oc2ccc(NC(=O)N(C)c3ccccc3)cc2)CCCC1 [Example 6N]
13 | CCCC(C)(C)Oc1ccc(NC(=O)C(C)(C)C)cc1 [Example 6]
18 | CCCC(C)(C)Sc1ccc(NC(=O)C(C)(C)N2CCN(c3ccccc3)CC2)cc1 [Example 8D]
0.8 | CCCC(C)(C)Sc1ccc(NC(=O)N(C)C2CCN(S(C)(=O)=O)CC2)cc1 [Example 13A]
0.4 | CCC(C)(C)CCc1ccc(NC(=O)N(C)CCc2ccncc2)cc1 [Example 19]
